In US20260191815A1, “THIOACRYLAMIDE DERIVATIVES FOR USE IN THE PREVENTION OR TREATMENT OF LIVER FIBROSIS” (CMR CUREDIAB METABOLIC RESEARCH GMBH, priority 2022, published 2026):

What was measured:
[1] = test system: fibronectin 1 (FN1) protein in LX2 cells; experiment: Simple Western of FN1 protein in TGF-β1-stimulated LX2 hepatic stellate cells; type: cell-based, human; conditions: for upregulation of FN1 in TGF-β1-treated LX2 cells: 10 μM, 30 min pretreatment, then 5 ng/ml TGF-β1 for 24 h; for protein abundance of FN1: sole treatment 10 μM for 24 h, LX2 cells, no TGF-β1
Experimental: (§1) The human hepatic stellate cell line LX2 was purchased from Merck. The cells were used up to passage ten and incubated under sterile conditions at 37° C. and 5% CO2. The cells were cultivated in medium containing Dulbecco's Modified Eagle's Medium with 4.5 g/l glucose (ThermoFisher), 4 mmol/l glutamine (ThermoFisher), 2% fetal bovine serum (FBS) (Merck), 100 U/ml penicillin and 100 μg/ml streptomycin (Merck). After 2 days, LX2 cells were starved for FBS for 24 h and then pretreated with 10 μM HK1 (Taros Chemicals GmbH & Co. KG) or 10 μM HK3 (Taros Chemicals GmbH & Co. KG) for 30 min. Subsequently, 5 ng/ml recombinant TGF-β1 (R&D Systems, Minneapolis, MN, USA) was added to the hepatic stellate cell cultures for 24 h. LX2 cells were also incubated with 5 ng/ml TGF-β1 alone as positive control for the hepatic stellate cell activation. Recombinant TGF-β1 was dissolved in sterile 4 mmol/l HCl (Merck) containing 0.1% bovine serum albumin (Roth Karlsruhe, Germany) as carrier protein. HK1 and HK3 were dissolved in sterile dimethyl sulfoxide (DMSO) (Sigma-Aldrich, Munich, Germany). Stimulations with 10 μM HK1, 10 μM HK3 and the corresponding vehicles (HCl and DMSO with or without HCl) alone for 24 h were also included as treatments.
For the measurement of the pro-fibrotic proteins, Western Blotting was performed. Proteins were extracted from whole cell lysate of LX2 cells using RIPA lysis buffer containing 50 mmol/l Tris-HCl (pH 8.0), 150 mmol/l NaCl, 1% IGEPAL® CA-630, 0.5% sodium deoxycholate, 0.1% sodium dodecyl sulfate, 10% PhosSTOP Phosphatase Inhibitor Cocktail (Roche, Basel, Switzerland) and 10% cOmplete Mini Protease Inhibitor Cocktail (Roche). Lysates were centrifuged at 14850×g for 15 min at 4° C. Then, the total protein content of the lysates was determined using a bicinchoninic acid protein assay (ThermoFisher Scientific) in accordance with the manufacturer's instructions. The quantification of protein abundance was performed by Simple Western size-based assays using a 12-230 kDa and 66-440 kDa Separation Module (ProteinSimple, San Jose, CA, USA) according to the manufacturer's instructions. This fully automated Western blotting system is based on a capillary electrophoresis technology. The separation, immobilization to the capillary wall via a proprietary, photoactivated capture chemistry and immunodetection of the proteins using a horseradish peroxidase (HRP)-conjugated secondary antibody and chemiluminescent substrate take place directly in the capillary without gel separation and transfer steps to blotting paper. The chemiluminescence is measured at multiple exposure times and automatically quantified by the Compass for Simple Western software (version 4.1.0) (ProteinSimple). The chemiluminescent signal for immunodetected proteins, which can be represented as an electropherogram or virtual blot-like image, is automatically quantified by calculation of the area under the curve of the peak.
The software reports the molecular weight, the area (in an arbitrary unit and in percent) and signal to noise ratio for each protein detected. The primary antibodies for the recognition of endogenous levels of total alpha-1 type 1 collagen (COL1A1) protein (#72026) and total fibronectin 1 (FN1) protein (#26836) were purchased from Cell Signaling Technology (Danvers, MA, USA). The anti-rabbit HRP-linked secondary antibody was from ProteinSimple. […]
(§2) Differences were analysed by one-way ANOVA followed by the Tukey method as correction for multiple testing.

[2] = test system: interleukin-6 (IL-6) secretion by LX2 cells; experiment: Olink Inflammation immunoassay of LX2 supernatants: IL-6; type: cell-based, human; conditions: for amount of secreted IL-6 after combined treatment with TGF-β1: 10 μM + 5 ng/ml TGF-β1, LX2 cells
Experimental: as §1
LX2 cells were cultured and treated as described in Example 1. After the incubation time, the supernatants of LX2 cells were collected, centrifuged for 10 min at 2000×g at 4° C. and transferred to new tubes to measure 92 proteins in the cell culture supernatants simultaneously using the Olink Inflammation multiplex immunoassay (Olink proteomics, Uppsala, Sweden). This panel covers 92 proteins, including pro- and anti-inflammatory cytokines, growth factors, chemokines and factors involved in biological processes such as apoptosis, inflammatory and immune response, cell adhesion, chemotaxis, or fibrosis. This protein quantification method is based on a proximity extension assay technology, which combines a dual-recognition immunoassay using two matched antibodies labelled with DNA oligonucleotides, with a polymerase chain reaction (PCR) amplification and a microfluidic quantitative real-time PCR as readout. The biomarker concentrations are given as normalized protein expression (NPX) values, which were generated from the threshold cycle values from the qPCR, and represent an arbitrary unit on a log 2 scale.
as §2

[3] = test system: caspase 3/7 activity in primary human hepatocytes; experiment: Caspase 3/7 activity provoked by palmitate in primary human hepatocytes; type: cell-based; conditions: Hepatocyte, 10 μM pre-treatment + palmitate 200 μM, read-out: caspase 3/7 activity, % of control
Experimental: The potential protective effect of HK1 and HK3 on caspase 3/7 activity in HepG2 cells and primary human hepatocytes was analysed.
HepG2 cells were obtained from Merck (Darmstadt, Germany) (ECACC-certified), while primary human hepatocytes were obtained from Thermo Fisher Scientific (Waltham, MA, USA), and all were cultured according to the instructions of the respective manufacturers. During experiments, cells were cultured in serum-free medium. Unless otherwise stated, cells were treated with 200 μM bovine serum albumin (BSA)-conjugated palmitate (Cayman Chemicals, Ann Arbor, MI) alone or in combination with 10 μM HK1 (Taros Chemicals GmbH & Co. KG, Dortmund, Germany) and HK3 (Taros Chemicals GmbH & Co. KG, Dortmund, Germany) 30 min prior to palmitate exposure for 24 hours. The vehicle BSA was used according to the palmitate concentration and DMSO according to HK1 and HK3 concentration. 2 μM Staurosporine (Abcam, Cambridge, GB) was used as a positive and 100 μM Caspase 3/7 inhibitor (CI) (Cayman Chemicals) as a negative control.
Differences were analysed by one-way ANOVA.

Row | SMILES | upregulation of FN1 in TGF-β1-treated LX2 cells [1] | protein abundance of FN1 [1] | attenuation of protein content of IL-6 compared to TGF-treated LX2 cells ([2]; 10 μM + 5 ng/ml TGF-β1) | amount of secreted IL-6 after combined treatment with TGF-β1 [2] | activity at 10 µM [3]
1 | Cc1cc(NC(=S)/C(C#N)=C(\O)C2CC2)ccc1F [HK1, 2-Cyano-3-cyclopropyl-N-(4-fluoro-3-methyl-phenyl)-3-hydroxy-thioacrylamide] | completely suppressed | no impact | 59% | downregulated | 85.6%
2 | Cc1cc(NC(=S)/C(C#N)=C(\O)C2CC2)ccc1[N+](=O)[O-] [HK3, 2-Cyano-3-cyclopropyl-3-hydroxy-N-(3-methyl-4-nitro-phenyl)-thioacrylamide] | completely suppressed | no impact | – | downregulated | 41.7%
